Here are results for three compounds from publication PMC5095863 (Chembiochem, 2016).

Holding throughout (type): biochemical
Test [1] deals with T1, SIRT6 (Homo sapiens, UniProt Q8N6T7). Briefly: Evaluation of SIRT inhibitors and activators with SFP3, SIRT6.
Another test has as its target T2, SIRT1 (Homo sapiens, UniProt Q96EB6).
T2 sequence (Q96EB6 1-747): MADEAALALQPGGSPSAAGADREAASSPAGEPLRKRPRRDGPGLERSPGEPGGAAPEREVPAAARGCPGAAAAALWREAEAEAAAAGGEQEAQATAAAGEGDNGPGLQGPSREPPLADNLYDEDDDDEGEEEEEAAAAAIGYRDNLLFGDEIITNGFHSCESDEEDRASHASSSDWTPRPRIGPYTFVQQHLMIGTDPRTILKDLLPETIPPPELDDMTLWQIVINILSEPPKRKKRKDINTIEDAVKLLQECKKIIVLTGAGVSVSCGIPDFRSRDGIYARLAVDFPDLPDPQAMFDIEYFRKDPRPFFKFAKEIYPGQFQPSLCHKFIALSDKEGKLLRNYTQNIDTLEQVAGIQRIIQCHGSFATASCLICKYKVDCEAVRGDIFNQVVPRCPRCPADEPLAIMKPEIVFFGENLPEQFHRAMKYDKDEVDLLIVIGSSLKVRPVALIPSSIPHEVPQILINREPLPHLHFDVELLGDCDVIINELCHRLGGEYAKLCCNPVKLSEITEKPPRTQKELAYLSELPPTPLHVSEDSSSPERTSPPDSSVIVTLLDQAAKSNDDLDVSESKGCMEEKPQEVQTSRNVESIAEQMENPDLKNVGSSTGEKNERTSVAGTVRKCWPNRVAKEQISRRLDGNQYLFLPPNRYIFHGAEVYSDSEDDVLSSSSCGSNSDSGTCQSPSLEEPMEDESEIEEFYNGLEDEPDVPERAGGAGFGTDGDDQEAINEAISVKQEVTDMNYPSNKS
The test can be described thus: Evaluation of SIRT inhibitors and activators with SFP3, SIRT1. Conditions: hydrolysis of 2.5 μM SFP3, 7 nM SIRT1, 500 μM NAD+, 37 °C, 60 min.

The target of test [2] is T1, SIRT6. The test can be described thus: Fluorescence enhancement due to enzymatic reaction of SFP1-3 with SIRT6. Conditions: 5 mM NAM, 48 nM SIRT6, 500 μM NAD, 37 °C.

T1 sequence (Q8N6T7 whole entry): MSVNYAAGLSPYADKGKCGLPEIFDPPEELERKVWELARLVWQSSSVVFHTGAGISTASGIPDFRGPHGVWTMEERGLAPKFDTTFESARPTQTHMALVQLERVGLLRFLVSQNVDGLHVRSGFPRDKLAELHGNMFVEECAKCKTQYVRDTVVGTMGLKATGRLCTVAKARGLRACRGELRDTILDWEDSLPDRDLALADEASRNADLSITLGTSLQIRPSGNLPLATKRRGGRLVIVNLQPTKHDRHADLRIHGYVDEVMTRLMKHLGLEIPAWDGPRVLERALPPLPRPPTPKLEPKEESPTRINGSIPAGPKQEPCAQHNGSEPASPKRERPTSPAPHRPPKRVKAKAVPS

Take `O=c1c(O)c(-c2ccc(O)c(O)c2)oc2cc(O)cc(O)c12` [Quercetin, quercetin]: the “effect on SIRT6 activity” value at SIRT6 [1] (hydrolysis of 2.5 μM SFP3, 48 nM SIRT6, 500 μM NAD+, 37 °C, 60 min) is reported as “inhibition at lower concentration, but activation at higher concentration”. On SIRT1, the “effect on SIRT1 activity” value is on record as “inhibition at lower concentration, but activation at higher concentration”. Consider `NC(=O)c1cccnc1` [NAM, nicotinamide], for which the “effect on SIRT6-dependent fluorescence increments of SFP2 and SFP3” value at SIRT6 [2] is given as “suppressed”. By IC50 is commonly meant the concentration needed to halve the response being measured. At SIRT6 [1], `Oc1ccc(/C=C/c2cc(O)cc(O)c2)cc1` [Resveratrol, resveratrol] gave an IC50 of around 190 µM. Moreover, the “effect on SIRT1 activity” value on SIRT1 is “did not affect”.
